≈ marks a conversion by molar mass, not a printed value. Read-outs that look alike come from different tables or passages of the source.
Legend:
[1] = test system: Mycobacterium avium ATCC 700898; assay: Antibacterial activity against nontuberculous mycobacteria, resazurin MIC50; type: cell-based; settings: ATCC700898
[2] = test system: Mycobacterium intracellulare ATCC 13950; assay: as above; type: cell-based; settings: ATCC13950
[3] = test system: C. difficile; assay: Antibacterial activity against Clostridium difficile, agar medium dilution MIC (CLSI); type: cell-based; settings: Clostridioides difficile
[4] = test system: M. tuberculosis; assay: Antibacterial activity against tuberculosis bacteria, resazurin (REMA) MIC50; type: cell-based; settings: Mycobacterium tuberculosis, read-out: MIC50
[5] = test system: Mycobacterium abscessus ATCC 19977; assay: Antibacterial activity against nontuberculous mycobacteria, resazurin MIC50; type: cell-based; settings: Mycobacteroides abscessus, ATCC19977
[6] = test system: C. difficile Ribotype 027; assay: Efficacy in Clostridium difficile-infected mouse model (survival); type: in vivo; settings: C57BL/6J mouse, 30 mg/kg orally once a day for 5 days
[7] = test system: IL-6; assay: Anti-inflammatory efficacy: IL-6 secretion in LPS-treated RAW 264.7 cells (ELISA); type: cell-based, mouse; settings: RAW 264.7 cells, 5, 10, 20, 40 ug/mL plus 1 ug/ml LPS, 24 hours, versus LPS only
Procedure: (§1) In order to confirm the anti-inflammatory effect of the micrococcin compound (Compound 13; Micrococcin P2) prepared in Example 1 of the present invention, an inflammatory cytokine secretion amount was measured.
(§2) RAW 264.7 cells which are mouse-derived macrophage cell lines were distributed from Korean Cell Line Bank (KCLB), and a DMEM (Dulbeccon's modified Eagle's medium; PAA, Austria) medium including 1% Penicillin-Streptomycin and 10% FBS (fetal bovine serum; Gibco Laboratories) was used. Cells were cultured under the conditions of 37° C. and 5% CO2.
(§3) The cultured RAW 264.7 cells were dispensed at 2x10^5 cells/well in a 24-well plate, the micrococcin compound (Compound 13; Micrococcin P2) prepared in Example 1 was treated by concentrations (5, 10, 20, 40 ug/mL) and then treated 1 ug/ml of lipopolysaccharide (LPS), and culture was performed in an incubator (5% CO2, 37° C.) for 24 hours.
(§4) A control group was a cell group which was not treated, and as a negative control group, a cell group treated with only LPS was used.
(§5) After completion of culture, a medium of each well was collected (at 4° C., 12,000 rpm for 10 minutes) and centrifuged, a supernatant was taken, and the concentration of inflammatory cytokine (IL-6, Il-1B) in the medium was quantified using an ELISA kit (R&D system, BD).

[8] = test system: Il-1B; assay: Anti-inflammatory efficacy: IL-1B secretion in LPS-treated RAW 264.7 cells (ELISA); type: cell-based, mouse; settings: RAW 264.7 cells, 5, 10, 20, 40 ug/mL plus 1 ug/ml LPS, 24 hours, versus LPS only
Procedure: as §1, §2, §3, §4, §5

[9] = Mycobacterium avium ATCC 700898, read-out: MIC50
[10] = Mycobacterium intracellulare ATCC 13950, read-out: MIC50
[11] = ATCC9689, C. difficile ATCC 9689, read-out: MIC
[12] = ATCC17858, C. difficile ATCC 17858, read-out: MIC
[13] = ATCC43255, C. difficile ATCC 43255, read-out: MIC
[14] = ATCC51695, C. difficile ATCC 51695, read-out: MIC
[15] = ATCCBAA1871, C. difficile ATCC BAA-1871, read-out: MIC
[16] = C. difficile Clinical isolate #1, read-out: MIC
[17] = C. difficile Clinical isolate #2, read-out: MIC

SMILES	MIC50 [1, 9] [µM]	MIC50 [2, 10] [µM]	MIC [3, 11] [µg/mL]	MIC [3, 12] [µg/mL]	MIC [3, 13] [µg/mL]	MIC [3, 14] [µg/mL]	MIC [3, 15] [µg/mL]	MIC [3, 16] [µg/mL]	MIC [3, 17] [µg/mL]	further results
CC[C@H]1OC(=O)[C@H](C)[C@@H](O[C@H]2C[C@@](C)(OC)[C@@H](O)[C@H](C)O2)[C@H](C)[C@@H](O[C@@H]2O[C@H](C)C[C@H](N(C)C)[C@H]2O)[C@](C)(OC)C[C@@H](C)C(=O)[C@H](C)[C@@H](O)[C@]1(C)O [CLR, Clarithromycin]	0.076 (≈ 0.0568 µg/mL)	0.143 (≈ 0.107 µg/mL)	–	–	–	–	–	–	–	–
Cc1ncc([N+](=O)[O-])n1CCO [MDZ, Metronidazole]	–	–	1 (≈ 5.84 µM)	1 (≈ 5.84 µM)	2 (≈ 11.7 µM)	2 (≈ 11.7 µM)	2 (≈ 11.7 µM)	1 (≈ 5.84 µM)	2 (≈ 11.7 µM)	–
COc1c(N2C[C@@H]3CCCN[C@@H]3C2)c(F)cc2c(=O)c(C(=O)O)cn(C3CC3)c12 [MXF, Moxifloxacin]	–	–	1 (≈ 2.49 µM)	2 (≈ 4.98 µM)	2 (≈ 4.98 µM)	2 (≈ 4.98 µM)	32 (≈ 79.7 µM)	32 (≈ 79.7 µM)	2 (≈ 4.98 µM)	–
C/C=C(\NC(=O)c1csc(-c2csc(-c3ccc4c(n3)-c3csc(n3)[C@H]([C@@H](C)O)NC(=O)c3csc(n3)[C@H](C(C)C)NC(=O)c3csc(n3)/C(=C/C)NC(=O)[C@H]([C@@H](C)O)NC(=O)c3csc-4n3)n2)n1)C(=O)NCC(C)=O [Micrococcin P2]	–	–	0.5 (≈ 0.438 µM)	1 (≈ 0.875 µM)	2 (≈ 1.75 µM)	–	1 (≈ 0.875 µM)	1 (≈ 0.875 µM)	1 (≈ 0.875 µM)	MIC50 ([4]; H37RV, M. tuberculosis H37Rv): 0.089 µM (≈ 0.102 µg/mL); MIC50 ([4]; Pan-susceptible isolate #2 (Pan-S2)): 0.199 µM (≈ 0.227 µg/mL); MIC50 ([4]; Pan-susceptible isolate #4 (Pan-S4)): 0.356 µM (≈ 0.407 µg/mL); MIC50 ([4]; Pan-susceptible isolate #6 (Pan-S6)): 0.354 µM (≈ 0.404 µg/mL); MIC50 ([4]; Pan-susceptible isolate #7 (Pan-S7)): 0.208 µM (≈ 0.238 µg/mL); MIC50 ([1]; Mycobacterium avium): 0.028 µM (≈ 0.032 µg/mL); MIC50 ([2]; Mycobacterium intracellulare): 0.033 µM (≈ 0.0377 µg/mL); MIC50 [5]: 0.654 µM (≈ 0.747 µg/mL); MIC ([3]; ATCC51695): 1 µg/mL (≈ 0.875 µM); death by C. difficile recurrence after drug administration ([6]; followed about 2 weeks): no death individual occurred by C. difficile recurrence; survival rate ([6]; survival followed about 2 weeks): 100%; secretion amount of IL-6 [7]: significantly decreased; secretion amount of IL-1B [8]: significantly decreased
CO[C@H]1/C=C/O[C@@]2(C)Oc3c(C)c(O)c4c(O)c(c(/C=N/N5CCN(C)CC5)c(O)c4c3C2=O)NC(=O)/C(C)=C\C=C\[C@H](C)[C@H](O)[C@@H](C)[C@@H](O)[C@@H](C)[C@H](OC(C)=O)[C@@H]1C [RIF, Rifampicin]	6.6 (≈ 5.43 µg/mL)	0.38 (≈ 0.313 µg/mL)	–	–	–	–	–	–	–	–
CN[C@H](CC(C)C)C(=O)N[C@H]1C(=O)N[C@@H](CC(N)=O)C(=O)N[C@H]2C(=O)N[C@H]3C(=O)N[C@H](C(=O)N[C@H](C(=O)O)c4cc(O)cc(O)c4-c4cc3ccc4O)[C@H](O)c3ccc(c(Cl)c3)Oc3cc2cc(c3O[C@@H]2O[C@H](CO)[C@@H](O)[C@H](O)[C@H]2O[C@H]2C[C@](C)(N)[C@H](O)[C@H](C)O2)Oc2ccc(cc2Cl)[C@H]1O [VAN, Vancomycin]	–	–	2 (≈ 1.38 µM)	1 (≈ 0.69 µM)	1 (≈ 0.69 µM)	2 (≈ 1.38 µM)	1 (≈ 0.69 µM)	4 (≈ 2.76 µM)	1 (≈ 0.69 µM)	–

— patent US20240277800A1, “PHARMACEUTICAL COMPOSITION COMPRISING MACROCOSINE COMPOUND AND METHOD FOR PREPARING MACROCOSINE COMPOUND” (priority 2021, published 2024)
